Measured values published in patent US8288363B2, “Medicaments for anti-herpes virus treatments” (ASE & BIO, priority 2006, dated 2012).

Legend:
[1] = system: intrinsic coagulation system; assay: APTT (activated partial thromboplastin time) test; format: biochemical; conditions: relative to heparin
Description: (§1) For this, the anticoagulant activity of the laminarin sulphate PS3 obtained in Example 1 was determined as a function of its concentration in comparison with that of heparin in the conventional coagulation, APTT or “activated partial thromboplastin time” tests, the prothombin time test, the so-called “HEPTEST” test and the thrombin time test. The APTT reflects an interaction with the intrinsic coagulation system, while the prothrombin time reflects an interaction with the extrinsic coagulation; the so-called “HEPTEST” test is the conventional test for measurement of the inhibitory activity of heparin with respect to factor Xa, and the thrombin time corresponds to the last stage of coagulation, that is to say the formation of fibrins induced by thrombin.

[2] = system: HSV-2; assay: Action on the viral adsorption (treatments A, B, C); format: cell-based, herpes simplex virus 2; conditions: treatment C (present during and after infection), 72 hours
Description: (§2) To determine whether PS3 has an effect on the viral adsorption, the procedure was as follows.
(§3) Vero cells were seeded at a cell density of 3.5·10^4 cells/well of a 96-well microtitre plate in 100 μl of MEM medium containing 8% FCS 24 hours before the test. The viral suspensions of HSV-1, HSV-1R, HSV-2 and HSV-2R, defined by an MOI of 0.01 ID50/cell for a cell concentration of 350,000 cells/ml, were tested.
(§4) On the day of the test, the cells were subjected to three different treatments designated A, B and C.
(§5) According to treatment A, cells treated with 50 μl of PS3 or comparison product (acyclovir) of a given concentration were infected with 50 μl of one of the viral suspensions identified above for one hour at 4° C.
(§6) The infected cells were then washed with 100 μl of saline buffer in order to remove the PS3 or the reference product as well as the viral particles which had not been adsorbed by the cells.
(§7) After having filled each well with sufficient MEM medium containing 8% FCS to arrive at a volume of 200 μl, the cells were then placed in an oven at 37° C. for 72 hours. […]
(§8) For these 3 treatments, the inhibitory effect of PS3 and of the reference product (expressed in EC50) on the adsorption of the four abovementioned viral strains after 72 hours was evaluated by measurement of the EC50 values in accordance with the method described in Example 3.

[3] = system: HSV-2R; assay: as above; format: cell-based, herpes simplex virus 2; conditions: treatment C (present during and after infection), 72 hours
Description: as §2, §3, §4, §5, §6, §7, §8

[4] = system: formation of fibrins induced by thrombin; assay: Thrombin time test; format: biochemical; conditions: relative to heparin
Description: as §1

[5] = system: rats of the Sprague Dawley breed; assay: Acute dermal toxicity; format: in vivo
Description: (§9) This study was carried out on white rabbits of the New Zealand breed and on rats of the Sprague Dawley breed.
(§10) The rats were subjected on the one hand to a study for determination of the acute dermal toxicity and on the other hand to a study for determination of the acute oral toxicity.
(§11) observing the OECD Guidelines no. 404 and 405 of 24 Feb. 1987 to the extent that they are studies carried out on white rabbits, and OECD Guidelines no. 401 and 402 (1987) as well as EEC Directive B-I 92/69 (1992) to the extent that they are studies carried out on Sprague Dawley rats.

[6] = system: factor Xa; assay: HEPTEST coagulation test; format: biochemical; conditions: in contrast to heparin
Description: For this, the anticoagulant activity of the laminarin sulphate PS3 obtained in Example 1 was determined as a function of its concentration in comparison with that of heparin in the conventional coagulation, APTT or “activated partial thromboplastin time” tests, the prothombin time test, the so-called “HEPTEST” test and the thrombin time test. The APTT reflects an interaction with the intrinsic coagulation system, while the prothrombin time reflects an interaction with the extrinsic coagulation; the so-called “HEPTEST” test is the conventional test for measurement of the inhibitory activity of heparin with respect to factor Xa, and the thrombin time corresponds to the last stage of coagulation, that is to say the formation of fibrins induced by thrombin. […] The specific activity (IU/mg) in the APTT represents 30% of the heparin activity, and in the case of the thrombin time 60%. To prevent coagulation totally, it was necessary to apply a concentration 4 times higher in the case of the APTT and a concentration 20 times higher in the case of the thrombin time.

[7] = system: rats of the Sprague Dawley breed; assay: Acute oral toxicity; format: in vivo
Description: as §9, §10, §11

[8] = system: factor Xa; assay: Specific anti-factor Xa test using chromogenic substrates; format: biochemical
Source text: The effect in the case of the thrombin time can be considered as being due to an inhibition of thrombin dependent on heparin cofactor II. On the basis of on the one hand the lower specific activity and on the other hand the profile dependent on the concentration and also on the other hand other investigations relating to the action mechanism, it is possible to consider that in the case of the laminarin sulphate PS3, the risk of bleeding is considerably lower than in the case of heparin.

[9] = system: white rabbits of the New Zealand breed; assay: Ocular irritation test; format: in vivo
Description: as §9
(§12) The white rabbits were subjected on the one hand to the ocular irritation test and on the other hand to the primary skin irritation test.
as §11

[10] = system: HSV-1; assay: Action on the viral adsorption (treatments A, B, C); format: cell-based, herpes simplex virus 1; conditions: treatment C (present during and after infection), 72 hours
Description: as §2, §3, §4, §5, §6, §7, §8

[11] = system: HSV-1R; assay: as above; format: cell-based, herpes simplex virus 1; conditions: treatment C (present during and after infection), 72 hours
Description: as §2, §3, §4, §5, §6, §7, §8

[12] = system: white rabbits of the New Zealand breed; assay: Primary skin irritation test; format: in vivo
Description: as §9, §12, §11

[13] = system: extrinsic coagulation; assay: Prothrombin time test; format: biochemical
Description: as §1

## sulphated laminarin [PS3]
[1]
  Concentration needed to prevent coagulation totally, APTT: 4 times higher
  Specific activity (IU/mg) in the APTT as share of the heparin activity: 30%
[2]
  EC50: 0.24 µg/mL
[3]
  EC50: 0.30 µg/mL
[4]
  Concentration needed to prevent coagulation totally, thrombin time: 20 times higher
  Specific activity (IU/mg) in the thrombin time as share of the heparin activity: 60%
[5]
  dermal 50% lethal dose: greater than 2 g/kg of body weight
[6]
  Activity in the HEPTEST test compared with heparin: more than 20 times weaker
[7]
  acute toxicity by the oral route: greater than 2 g/kg of body weight
[8]
  anti-factor Xa activity dependent on the antithrombin: neither a significant anti-factor Xa activity dependent on the antithrombin
[9]
  Ocular irritation: slightly irritating action
[10]
  EC50: 3.84 µg/mL
[11]
  EC50: 5.54 µg/mL
[12]
  Primary skin irritation: non-irritating action
[13]
  Anticoagulant effect on the prothrombin time: no pronounced anticoagulant effect
